# Experimental data taken from article PMC11765512 (International Journal of Molecular Sciences, 2025).
# Columns and labels:
# [1] = system: SARS-CoV-2 S-mediated cell–cell fusion (HEK-293T/SARS-CoV-2-S/EGFP with Vero); type: cell-based
# S-RBD+ACE2 complex = S-RBD+ACE2 complex (Severe acute respiratory syndrome coronavirus 2, UniProt P0DTC2); design: species or system SARS-CoV-2
# [2] = system: AH109 (pAD-S-RBD+pBD-ACE2) cells; experiment: β-gal activity, ONPG assay in Y2H strain; type: cell-based, yeast
# Protocol: The ONPG assay was conducted following the protocol of the β-gal activity quantitative detection kit (GENMED S[…]. USA, Arlington, MA, USA). The principle is based on the chemical reaction that the colorless substrate ONPG can be hydrolyzed by β-gal to generate o-nitrophenol (ONP) with a bright-yellow appearance. Briefly, cells were pelleted in Eppendorf® tubes and resuspended in Z-buffer. Chloroform and 0.2% SDS were added to the cells in the tubes and mixed by briefly vortexing, followed by incubation at 28 °C for 5 min. Next, the ONPG solution was added for further incubation. The reaction was terminated after 10 min for p53-T and after 25 min for all other samples by the addition of chilled Na2CO3. Absorbance was recorded at 420 nm. Results were normalized against the cell density and incubation time using the following formula: U=OD420sample−OD420blank/OD600×t×V
# Here, ‘t’ represents the incubation time duration, measured in min, while ‘V’ denotes the volume of the cell cultures utilized for the assay, expressed in mL. The experiments were repeated three times.
# AH109 (pAD-T+pBD-53) = biological target: T1, AH109 (pAD-T+pBD-53) (UniProt P02340+P03070); experiment: Y2H growth inhibition (MIC) of control strain AH109 (pAD-T+pBD-53); type: cell-based, yeast; details: SD/-Leu/-Trp/-His/-Ade dropout medium, 48 h
# T1 construct: expressed in transfected cells; host or cells: yeast reporter strain AH109 carrying pAD-T and pBD-53
# Protocol: The Chemdiv screening compound library used for HTS assay in this research is a combination of synthetic compounds from Enamine (Kyiv, Ukraine) and Life Chemicals Inc. (Burlington, ON, Canada), which can be purchased from Shanghai Topscience Biotechnology Co., Ltd., China. The compounds were stocked at 10 mg/mL in DMSO and used for the screening assays as described. […] Next, 199 μL of the diluted culture and 1 μL of tested compounds (the final concentration was 50 μg/mL) or DMSO were added into each well. […] The final concentrations of the compounds ranged from 100 μg/mL to 0.78 μg/mL with 2-fold dilutions between concentrations.
# Huh-7 cells = experiment: CCK-8 cytotoxicity, Huh-7; type: cell-based, Human; details: for Survival Rate (%) Huh-7: 50 μg/mL, 48 h, CCK-8
# Protocol: (§1) African green monkey kidney cells (Vero), Human Hepatocellular Carcinoma Cells (Huh-7), and Human Embryonic Kidney 293T (HEK-293T) cells were maintained in our laboratory. Cells were cultured in Dulbecco’s Modified Eagle’s Medium (DMEM, Hyclone, Logan, UT, USA) containing 10% fetal bovine serum (FBS, Gibco, Waltham, MA, USA) at 37 °C under 5% CO2 in a humidified environment.
# (§2) The cytotoxicity of compounds against Vero, Huh-7, and HEK-293T cells was detected using the Cell Counting Kit-8. Briefly, the target cells were cultured at a density of 8000 cells per well in a 96-well plate containing DMEM enriched with 10% FBS. The cells were allowed to attach overnight, and the medium was replaced with a fresh serum-free DMEM containing 50 µg/mL of compounds. The cell viability was measured at 48 h post-drug treatment by the addition of the CCK-8 reagent (Biosharp, Hefei, Anhui, China), followed by incubation for 4 h. Finally, the absorbance of the cell culture was measured at 450 nm using a microplate reader (PerkinElmer, Waltham, MA, USA). The background absorbance of the blank media was also measured and subtracted from the sample reading. This experiment was repeated 3 times for each group. The obtained results were normalized to that of the control sample, which represented a cell viability of 100%.
# Vero cells = experiment: CCK-8 cytotoxicity, Vero; type: cell-based, African green monkey; details: for Survival Rate (%) Vero: 50 μg/mL, 48 h, CCK-8
# Protocol: as §1, §2
# SARS-CoV-2 S-RBD = SARS-CoV-2 S-RBD (Severe acute respiratory syndrome coronavirus 2, UniProt P0DTC2); experiment: biochemical; type: binding
# [3] = system: SARS-CoV-2 pseudovirus entry into HEK-293T-hACE2 cells; experiment: microbe, parasite or virus in culture; type: cell-based
# HEK-293T cells = experiment: CCK-8 cytotoxicity, HEK-293T; type: cell-based, Human; details: for Survival Rate (%) HEK-293T: 50 μg/mL, 48 h, CCK-8
# Protocol: as §1, §2
# ACE2 = ACE2 (Homo sapiens, UniProt Q9BYF1); experiment: SPR binding to immobilised ACE2
# ACE2-S-RBD interaction = ACE2-S-RBD interaction (Severe acute respiratory syndrome coronavirus 2, UniProt P0DTC2); type: binding, SARS-CoV-2
# [4] = Severe acute respiratory syndrome-related coronavirus, 18 h, read-out: Inhibition rate of pseudovirus entry
# T1 sequence (P03070 87-708 limits assumed): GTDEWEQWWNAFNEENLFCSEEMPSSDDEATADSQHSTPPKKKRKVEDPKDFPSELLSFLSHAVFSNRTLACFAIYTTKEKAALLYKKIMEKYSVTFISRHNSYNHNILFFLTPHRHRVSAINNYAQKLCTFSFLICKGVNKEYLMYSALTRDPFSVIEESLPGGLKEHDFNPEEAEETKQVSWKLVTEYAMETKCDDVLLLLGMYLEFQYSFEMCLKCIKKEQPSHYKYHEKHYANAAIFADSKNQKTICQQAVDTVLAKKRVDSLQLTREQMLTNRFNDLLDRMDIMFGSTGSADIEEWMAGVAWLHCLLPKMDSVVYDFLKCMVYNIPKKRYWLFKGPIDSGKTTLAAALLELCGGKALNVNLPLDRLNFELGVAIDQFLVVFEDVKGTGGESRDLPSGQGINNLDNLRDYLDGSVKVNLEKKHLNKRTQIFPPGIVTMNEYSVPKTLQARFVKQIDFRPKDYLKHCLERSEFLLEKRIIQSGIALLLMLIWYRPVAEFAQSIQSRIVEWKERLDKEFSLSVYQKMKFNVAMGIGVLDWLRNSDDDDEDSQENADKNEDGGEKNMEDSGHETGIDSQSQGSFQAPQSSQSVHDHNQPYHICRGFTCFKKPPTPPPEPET
# T1 sequence (P02340 72-390 limits assumed): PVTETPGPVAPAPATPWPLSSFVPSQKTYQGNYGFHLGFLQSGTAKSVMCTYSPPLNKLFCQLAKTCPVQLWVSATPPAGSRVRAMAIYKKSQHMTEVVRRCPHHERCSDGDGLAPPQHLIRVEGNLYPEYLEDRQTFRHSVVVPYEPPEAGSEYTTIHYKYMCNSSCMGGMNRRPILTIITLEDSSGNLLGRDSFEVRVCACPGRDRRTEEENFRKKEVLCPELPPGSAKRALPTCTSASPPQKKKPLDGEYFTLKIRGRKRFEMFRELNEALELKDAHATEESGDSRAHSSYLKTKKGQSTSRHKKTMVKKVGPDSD
# Sequence of ACE2 (Q9BYF1 18-805): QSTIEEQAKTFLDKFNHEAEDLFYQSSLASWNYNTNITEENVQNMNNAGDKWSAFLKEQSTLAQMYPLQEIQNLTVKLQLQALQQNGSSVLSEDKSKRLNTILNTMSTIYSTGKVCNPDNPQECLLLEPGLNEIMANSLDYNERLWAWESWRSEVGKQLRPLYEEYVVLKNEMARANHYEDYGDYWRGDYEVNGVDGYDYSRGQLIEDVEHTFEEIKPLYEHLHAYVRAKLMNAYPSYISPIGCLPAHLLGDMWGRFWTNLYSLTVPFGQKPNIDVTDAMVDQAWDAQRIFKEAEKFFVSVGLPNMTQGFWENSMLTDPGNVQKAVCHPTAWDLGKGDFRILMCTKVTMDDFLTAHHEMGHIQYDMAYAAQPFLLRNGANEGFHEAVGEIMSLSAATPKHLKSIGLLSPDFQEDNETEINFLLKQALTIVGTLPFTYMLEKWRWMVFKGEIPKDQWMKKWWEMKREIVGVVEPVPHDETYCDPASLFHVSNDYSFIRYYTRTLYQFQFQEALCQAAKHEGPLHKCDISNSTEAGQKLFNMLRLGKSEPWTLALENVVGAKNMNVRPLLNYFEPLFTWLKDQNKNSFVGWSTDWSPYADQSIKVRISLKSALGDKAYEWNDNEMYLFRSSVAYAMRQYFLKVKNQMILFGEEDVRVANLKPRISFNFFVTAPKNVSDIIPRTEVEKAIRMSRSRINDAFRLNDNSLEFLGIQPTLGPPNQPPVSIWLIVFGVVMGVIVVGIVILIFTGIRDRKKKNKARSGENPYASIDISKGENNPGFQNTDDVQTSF
compound,measurement,setting,value
O=C(c1ccc(N2CCCCS2(=O)=O)cc1)N1CCN(C(=O)c2ccco2)CC1 [IMB-1C],Syncytium formation,[1],somewhat blocked in a dose-dependent manner
same,Decrease of β-fold content,S-RBD+ACE2 complex,9.46%
same,Increase of α-helix content,S-RBD+ACE2 complex,6.85%
same,Secondary Structure Content (%) Random,S-RBD+ACE2 complex,32.93%
same,Secondary Structure Content (%) α-Helix,S-RBD+ACE2 complex,13.12%
same,Secondary Structure Content (%) β-Fold,S-RBD+ACE2 complex,42.07%
same,Secondary Structure Content (%) β-Turn,S-RBD+ACE2 complex,15.97%
same,Concentration showing clear inhibition of β-gal activity,[2],0.39 µg/mL
same,MIC against AH109 (pAD-T+pBD-53),AH109 (pAD-T+pBD-53),3.125 μg/mL
same,Survival Rate (%) Huh-7,Huh-7 cells,122%
same,Effect on cell proliferation of Huh-7,Huh-7 cells; up to 50 µg/mL for 48 h,did not affect
same,Survival Rate (%) Vero,Vero cells,105%
same,Effect on cell proliferation of Vero,Vero cells; up to 50 µg/mL for 48 h,did not affect
same,Kd,SARS-CoV-2 S-RBD,1.06 µM
same,Inhibition of pseudovirus entry (in words),[3],concentration-dependent inhibition
same,inhibition at 10 µg/mL,[3]; [4],42.5%
same,inhibition at 20 µg/mL,[3]; [4],68.1%
same,Survival Rate (%) HEK-293T,HEK-293T cells,88%
same,Effect on cell proliferation of HEK-293T,HEK-293T cells; up to 50 µg/mL for 48 h,did not affect
same,Kd,ACE2,1.11 µM
same,SPR signal of ACE2 binding to S-RBD,ACE2-S-RBD interaction,the signal value decreased
"CC(C)CCC[C@@H](C)[C@H]1CC[C@H]2[C@@H]3CC[C@H]4C[C@@H](O[C@@H]5O[C@H](COS(=O)(=O)O)[C@@H](O[C@H]6O[C@H](COS(=O)(=O)O)[C@@H](O[C@H]7O[C@H](COS(=O)(=O)O)[C@@H](O[C@H]8O[C@H](COS(=O)(=O)O)[C@@H](OS(=O)(=O)O)[C@H](OS(=O)(=O)O)[C@H]8OS(=O)(=O)O)[C@H](OS(=O)(=O)O)[C@H]7OS(=O)(=O)O)[C@H](OS(=O)(=O)O)[C@H]6OS(=O)(=O)O)[C@H](OS(=O)(=O)O)[C@H]5OS(=O)(=O)O)CC[C@]4(C)[C@H]3CC[C@]12C [Pixatimod, reference compound]",MIC against AH109 (pAD-T+pBD-53),AH109 (pAD-T+pBD-53),6.25 μg/mL
Cc1ccc(N(Sc2ccc(Cl)cc2)C2C=CS(=O)(=O)C2)cc1 (stereo not shown) [IMB-4A],Concentration showing clear inhibition of β-gal activity,[2],6.25 µg/mL
same,MIC against AH109 (pAD-T+pBD-53),AH109 (pAD-T+pBD-53),12.5 μg/mL
same,Survival Rate (%) Huh-7,Huh-7 cells,25%
same,Survival Rate (%) Vero,Vero cells,71%
same,Inhibition of pseudovirus entry (in words),[3],could not be observed
same,Survival Rate (%) HEK-293T,HEK-293T cells,18%
